Among the test systems are 786-0 renal; A549 NSCLC; HCT-15 colon; HS 578T breast; IGROV1 ovarian; K-562 leukemia; MALME-3M melanoma; MDA-MB-231 breast; MDA-MB-435; NCI-H23 lung; NCI-H522 lung; NCI/ADR-RES ovarian; OVCAR-4 ovarian; SN12C renal; SR leukemia; SW-620 colon; TK-10 renal; UACC-257 melanoma; OVCAR-3 ovarian.
What all share (experiment): NCI anticancer screen, dose series, 48 h

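Protocol summary: plate cells (96-well), add compound at 5 concentrations, incubate 48 h, interpolate endpoints linearly. GI50 is the concentration that inhibits growth by half. The concentration for full growth arrest is given as TGI.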 Bounds are passed on as bounds.

As for `O=C1C(Cl)C2(CC(/C=C/c3ccccc3Cl)=NN2c2cccc(S(=O)(=O)O)c2)N1c1nc2ccccc2s1` (configuration not stated), the TGI in the assay with 786-0 renal was 62.3 µM; in the assay with A549 NSCLC, over 100 µM; in the assay on HCT-15 colon, over 100 µM; in the assay on HS 578T breast, over 100 µM; with IGROV1 ovarian, over 100 µM; in the assay with K-562 leukemia it was over 100 µM. The TGI was over 100 µM with MALME-3M melanoma; over 100 µM in the assay on MDA-MB-231 breast; 24.3 µM with MDA-MB-435; over 100 µM with NCI-H23 lung; 26.9 µM with NCI-H522 lung; over 100 µM with NCI/ADR-RES ovarian. Moreover, the TGI was over 100 µM with OVCAR-4 ovarian; over 100 µM in the assay with SN12C renal; 25.3 µM with SR leukemia; over 100 µM in the assay with SW-620 colon; 84.6 µM in the assay on TK-10 renal; over 100 µM in the assay on UACC-257 melanoma.
Turning to `O=C(NC1=NCC(CN2CCN(c3ccccc3)CC2)O1)Nc1ccccc1` (configuration not stated), the TGI with 786-0 renal, in the assay with A549 NSCLC, in the assay on HCT-15 colon, in the assay with HS 578T breast, with IGROV1 ovarian and in the assay with K-562 leukemia was over 100 µM in each case. For the same compound, the TGI in the assay on MALME-3M melanoma, in the assay with MDA-MB-231 breast, with MDA-MB-435, with NCI-H23 lung, in the assay on NCI-H522 lung and with NCI/ADR-RES ovarian was over 100 µM throughout. For the same compound, the TGI in the assay with OVCAR-4 ovarian, with SN12C renal, in the assay with SR leukemia, in the assay with SW-620 colon, with TK-10 renal and in the assay on UACC-257 melanoma was over 100 µM each time.
Regarding `CCOC(=O)c1cnc2oc3ccc(O)cc3c2c1C`, the TGI in the assay on 786-0 renal, in the assay on A549 NSCLC, in the assay on HCT-15 colon, in the assay with HS 578T breast, in the assay on IGROV1 ovarian and in the assay on K-562 leukemia was over 100 µM throughout. The TGI with MALME-3M melanoma, with MDA-MB-231 breast, in the assay on MDA-MB-435, with NCI-H23 lung, in the assay on NCI/ADR-RES ovarian and with OVCAR-3 ovarian was over 100 µM each time. The TGI in the assay on OVCAR-4 ovarian, in the assay on SN12C renal, in the assay with SR leukemia, in the assay on SW-620 colon, with TK-10 renal and in the assay with UACC-257 melanoma was over 100 µM each time. Further, the GI50 in the assay on IGROV1 ovarian is 86.2 µM.
Consider `CC(=O)C(=C(c1ccccc1)c1ccccc1)c1ccccc1`, for which the TGI in the assay with 786-0 renal, with A549 NSCLC, in the assay on HCT-15 colon, in the assay on HS 578T breast, in the assay on K-562 leukemia and with MALME-3M melanoma was over 100 µM throughout. The TGI in the assay with MDA-MB-231 breast, in the assay on MDA-MB-435, in the assay with NCI-H23 lung, with NCI-H522 lung, with NCI/ADR-RES ovarian and in the assay on OVCAR-3 ovarian was over 100 µM throughout. For the same compound, the TGI in the assay with OVCAR-4 ovarian, in the assay on SN12C renal, in the assay with SR leukemia, in the assay with SW-620 colon, in the assay with TK-10 renal and in the assay with UACC-257 melanoma was over 100 µM each time.
For the compound `Clc1ccc(NCc2nnc(CCCCCCCCc3nnc(CNc4ccc(Cl)cc4)o3)o2)cc1`, the TGI with 786-0 renal, in the assay on A549 NSCLC, in the assay on HCT-15 colon, with HS 578T breast, with K-562 leukemia and in the assay with MALME-3M melanoma was over 100 µM in each case. Moreover, the TGI with MDA-MB-231 breast, with MDA-MB-435, in the assay with NCI-H23 lung, with NCI-H522 lung, with NCI/ADR-RES ovarian and in the assay on OVCAR-3 ovarian was over 100 µM each time. Also, the TGI with OVCAR-4 ovarian, with SN12C renal, with SR leukemia, in the assay with TK-10 renal and with UACC-257 melanoma was over 100 µM throughout.
With `O=C1c2cc(Cl)ccc2-n2cnnc2C2CSCN12` (configuration not stated), the TGI with 786-0 renal, in the assay on A549 NSCLC, in the assay on HCT-15 colon, in the assay on HS 578T breast, with IGROV1 ovarian and with K-562 leukemia was over 100 µM in each case. For the same compound, the TGI with MALME-3M melanoma, with MDA-MB-231 breast, in the assay on MDA-MB-435, with NCI-H522 lung, in the assay with NCI/ADR-RES ovarian and in the assay with OVCAR-3 ovarian was over 100 µM in each case. Also, the TGI in the assay on OVCAR-4 ovarian, in the assay on SN12C renal, in the assay with SR leukemia, in the assay on SW-620 colon, in the assay with TK-10 renal and with UACC-257 melanoma was over 100 µM in each case.
`O=C(CC(=O)N(C(=O)/C=C\c1ccccc1)c1ccc(Cl)cc1)N1N=C(c2ccccc2)C(N=Nc2cccc([N+](=O)[O-])c2)C1=O` (configuration not stated): the TGI in the assay on 786-0 renal is 19.6 µM; with A549 NSCLC, over 100 µM; with HCT-15 colon it was 21.6 µM; in the assay on HS 578T breast it was 75.1 µM; in the assay with IGROV1 ovarian, 48.6 µM; in the assay on K-562 leukemia it was 68.6 µM. For the same compound, the TGI was 44.5 µM in the assay with MALME-3M melanoma; 37.7 µM with MDA-MB-231 breast; over 100 µM with MDA-MB-435; 40.2 µM in the assay with NCI-H23 lung; 22 µM in the assay with NCI/ADR-RES ovarian; 6.25 µM in the assay on OVCAR-3 ovarian. Also, the TGI is over 100 µM with SN12C renal, 14 µM in the assay with SR leukemia, 57.9 µM in the assay with SW-620 colon and 38.9 µM in the assay with TK-10 renal.
`COc1cc(O)c2c(=O)cc(-c3ccc(O)cc3O)oc2c1CC=C(C)C`: the TGI in the assay on 786-0 renal is over 100 µM; with A549 NSCLC, 29.7 µM; with HCT-15 colon, 25.5 µM; in the assay on HS 578T breast, over 100 µM; with IGROV1 ovarian, 39.6 µM; in the assay on K-562 leukemia, over 100 µM. Also, the TGI is 33 µM in the assay with MALME-3M melanoma; 54.1 µM in the assay on MDA-MB-231 breast; over 100 µM with MDA-MB-435; 32.5 µM with NCI-H23 lung; 33.6 µM in the assay with NCI-H522 lung; over 100 µM with NCI/ADR-RES ovarian. For the same compound, the TGI is 28.5 µM in the assay on OVCAR-4 ovarian; 31.5 µM in the assay with SN12C renal; 26.3 µM in the assay with SR leukemia; over 100 µM with SW-620 colon; 74.3 µM in the assay with TK-10 renal; 86.6 µM in the assay with UACC-257 melanoma.

(Values after PubChem BioAssay (NCI).)
